For one assay, the system named is COLO 201. Description: Cytotoxicity against human COLO201 cells assessed as inhibition of cell proliferation incubated for 24 hrs by WST-1 reagent based titer-plate reader assay. The assay is classed as functional.
A further assay relates to Bipolaris oryzae. Description: Antifungal activity against Bipolaris oryzae assessed as inhibition of fungal growth incubated for 5 days by paper disk method. The assay is classed as functional, organism-based. Particulars: time 5.0 day.

Activity calls are given as the source filed them. The rule behind the calls is not given here.

On to `CC1C2CC3(O)OC(C)(O2)C(=O)C1C3O` (stereo unspecified), for which the result with COLO 201 and with Bipolaris oryzae was inactive.
As to `C[C@@H]1C=C[C@@]2(O)[C@H](O)[C@@H]1C(=O)[C@]1(O)O[C@H]3C(=O)[C@@H]4[C@H](C)C=C[C@](O)([C@H]3[C@H]21)[C@@H]4O`, the outcome in the assay with COLO 201 and in the assay on Bipolaris oryzae was inactive.
With `CC1C=CC2(O)CC(=O)C(=O)C1C2O` (stereo unspecified), the outcome in the assay on COLO 201 and in the assay with Bipolaris oryzae was inactive.
